Data from article PMC7802074, “Azanitrile Inhibitors of the SmCB1 Protease Target Are Lethal to Schistosoma mansoni: Structural and Mechanistic Insights into Chemotype Reactivity” (ACS Infectious Diseases, 2020).
Where “and” joins values, the source holds several entries; their conditions need not be identical. Equal entries are not always repeated.

How the values were obtained:
[1] = molecular target: recombinant SmCB1 (Schistosoma mansoni, UniProt Q8MNY2, T185A/T300A); assay: SmCB1 kinetic inhibition assay with fluorogenic substrate Cbz-Phe-Arg-AMC; type: biochemical; details: substrate Cbz-Phe-Arg-AMC; for Ki: SmCB1 inhibition Ki, kinetic activity assay, pH 5.5, 37 °C; for SmCB1 inhibition k2nd (second-order rate constant): slow-binding azadipeptide nitriles
recombinant SmCB1, sequence (Q8MNY2 87-340 T185A/T300A): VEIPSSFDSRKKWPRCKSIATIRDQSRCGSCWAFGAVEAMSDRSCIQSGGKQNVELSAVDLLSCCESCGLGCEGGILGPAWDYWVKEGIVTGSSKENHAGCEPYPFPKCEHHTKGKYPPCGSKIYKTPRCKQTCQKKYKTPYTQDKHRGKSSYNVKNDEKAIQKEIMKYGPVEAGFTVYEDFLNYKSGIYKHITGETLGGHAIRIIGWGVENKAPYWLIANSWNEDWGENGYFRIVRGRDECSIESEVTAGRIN
Experimental: Inhibition measurements were performed in triplicates in 96-well microplates (100 μL assay volume) at 37 °C. SmCB1 (20–40 pM) was added to a mixture of the fluorogenic substrate Cbz-Phe-Arg-AMC (20 μM) and an inhibitor (0–100 μM) in 0.1 M sodium acetate, pH 5.5, containing 2.5 mM dithiothreitol and 0.1% PEG 6000. The substrate hydrolysis was monitored in an Infinite M1000 microplate reader (Tecan, Männedorf, Switzerland) at excitation and emission wavelengths of 360 and 465 nm, respectively, for up to 15 and 60 min for fast- and slow-binding inhibitors, respectively. […] For slow-binding inhibitors, an observed first-order rate constant kobs was calculated at each inhibitor concentration by fitting the progress curve to the equation P = vst + (vi – vs)(1 – […])/kobs + d, where P is the product formation, vs is the steady-state velocity, t is the reaction time, vi is the initial velocity, and d is the offset. The inhibition constant Ki′ was determined by nonlinear regression using the equation vs/v0 = 1/(1 + [I]/Ki′). The true inhibition constants Ki were then calculated using the equation Ki = Ki′/(1 + [S]/Km), where [S] is the substrate concentration and Km is the Michaelis constant. The apparent second-order rate constant k2nd′ was determined by fitting to the linear equation kobs = k2nd′[I] + koff, where koff is the first-order rate constants for the dissociation of the enzyme–inhibitor complex and the true constant k2nd was calculated by the correction k2nd = k2nd′(1 + [S]/Km). […] In none of the assay systems did the final concentration of DMSO exceed 1.5%.

[2] = Cytotoxicity, XTT test, HepG2; type: cell-based; details: human, % viability vs. untreated cells, read-out: Cell line viability after 72 h; for viability at 72 h, 1 µM: HepG2, 1 µM; for viability at 72 h, 10 µM: HepG2, 10 µM
Experimental: (§1) T able S4. […]
(§2) Cell line viability after 72 h (%)a
(§3) Inhibitor 1 µM 10 µM 1 µM 10 µM
(§4) aCytotoxicity of the inhibitors towards human cell lines are expressed as % viability vs. untreated cells. Cells were treated with
(§5) the indicated concentration of the compounds for 72 h and assayed by means of the XTT test (as described previously 12).
(§6) Standard deviation values were within 10% of the mean of tetraplicates. […]

[3] = test system: S. mansoni newly transformed schistosomula (NTS); assay: Schistosome phenotypic assay; type: cell-based, Schistosoma mansoni; details: for Severity score Day 1 / Severity score Day 2 / Severity score Day 3 / Severity score Day 4: 10 μM inhibitor, scale 0 (no effect) to 4 (severe); for Severity score Day 1: 24 h; for Severity score Day 2: 48 h
Experimental: Newly transformed schistosomula (NTS) of S. mansoni were prepared by mechanically transforming infective larvae (cercariae) as described previously.[70],[71] NTS (200–300 parasites) were incubated in 200 μL of Basch Medium 169 containing 5% FBS, 100 U mL^–1 penicillin, and 100 μg mL^–1 streptomycin at 5% CO2 and 37 °C.[70],[72],[73] Inhibitors were added at the final concentration of 10 μM,[20],[69] and changes in phenotypes were observed every 24 h for up to 4 days. A constrained nomenclature of “descriptors” is used to record the multiple and dynamic changes in movement, shape, and translucence of which the schistosome parasite is capable (Table S3).[70] These descriptors are then converted into an ordinal “severity score” system from 0 (no effect) to 4 (maximum effect), which allows for the relative comparison of compound effects, as described.[74],[75] Images of NTS were captured using a Zeiss Axiovert 40 C inverted microscope (10× objective) and a Zeiss AxioCam MRc digital camera controlled by AxioVision 40 (v. 4.8.1.0) software.

[4] = Cytotoxicity, XTT test, HUVEC; type: cell-based; details: human, % viability vs. untreated cells, read-out: Cell line viability after 72 h
Experimental: as §1, §2, §3, §4, §5, §6

SMILES | Ki [1] | SmCB1 inhibition k2nd (second-order rate constant) [1] | viability at 72 h, 1 µM [2] | viability at 72 h, 10 µM [2] | Descriptors Day 1 (phenotypic changes) ([3]; 10 µM inhibitor) | Descriptors Day 2 (phenotypic changes) ([3]; 10 µM inhibitor) | Severity score Day 1 [3] | Severity score Day 2 [3] | Severity score Day 3 [3] | Severity score Day 4 [3] | viability at 72 h, 1 µM [4] | viability at 72 h, 10 µM [4] | Descriptors Day 3 (phenotypic changes) ([3]; 10 µM inhibitor)
CCCCCN(C#N)N(C)C(=O)[C@H](Cc1ccccc1)NC(=O)OCc1ccccc1 [Compound 9a] | 6.2 ± 0.5 nM | 2.1 10^3 M^-1 s^-1 and 2.1 ± 0.3 10^3 M^-1 s^-1 | 85% | 78% | Deg | Deg | 4 and 4/4 | 4 and 4/4 | 4 | 4 | 104% | 81% | 
CN(C#N)N(C)C(=O)[C@H](CC1CCCCC1)NC(=O)OCc1ccccc1 [Compound 11a] | 4.6 ± 0.5 nM | 32.7 ± 2.8 10^3 M^-1 s^-1 | 89% | 109% | R, Unc | Deg | 2 | 4 | 4 | 4 | 92% | 85% | Deg
